# Source: patent publication US12679878B2, “CRF2 receptor agonists and their use in therapy” (SANOFI, priority 2020, dated 2026)
# Starred links: 1 amine or outer side, 2 acyl side, 3 side chain; linkers in the order of their positions; H or OH if unused. Residues, ends and D or L forms follow the SMILES beside them. Groups on a side chain read outwards from the residue. *: point of attachment. γGlu = O=C(O)[C@H](CCC(=O)[*:2])N[*:1]; Palmitoyl = CCCCCCCCCCCCCCCC(=O)*
# Target: T1, CRF2R (Homo sapiens, UniProt Q13324)
# T1 construct: expressed in transfected cells; host or cells: TeloHEAC
# Experiment: EC50 [nM] CRF2R
# Text: Table printed on a drawing sheet, Fig. 3
# Head of the field: EC50 [nM] CRF2R
# The patent's description of the figure: FIG. 3: Representative sequences from peptides according to the invention with an optimized stability profile, wherein K[sema] stands for K[gGlu-C(O)(CH2)14CH3]
# First copying reader's note: Second half (positions 13-38, C-term and activity) of the first table; the rows follow the same order, so the four rows of Peptide Seq. 1 are Patent Sequence N° 130, 171, 172 and 173.
# Where the first naming reader finds the target: head: EC50 [nM] CRF2R
# T1 sequence (Q13324 whole entry, looked up): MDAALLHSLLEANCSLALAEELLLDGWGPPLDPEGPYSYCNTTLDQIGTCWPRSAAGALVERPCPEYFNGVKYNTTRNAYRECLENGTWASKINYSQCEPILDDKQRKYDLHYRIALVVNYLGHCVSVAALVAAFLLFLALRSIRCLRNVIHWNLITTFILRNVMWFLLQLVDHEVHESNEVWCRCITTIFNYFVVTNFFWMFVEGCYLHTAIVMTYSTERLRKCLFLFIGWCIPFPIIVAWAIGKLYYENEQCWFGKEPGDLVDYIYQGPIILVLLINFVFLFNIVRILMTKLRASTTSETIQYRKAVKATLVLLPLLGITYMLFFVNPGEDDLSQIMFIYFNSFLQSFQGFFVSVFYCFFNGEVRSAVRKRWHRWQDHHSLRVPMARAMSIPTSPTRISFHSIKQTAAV
row,EC50,SMILES
1,0.06 nM,CCCCCCCCCCCCCCCC(=O)N[C@@H](CCC(=O)NCCCC[C@H](NC(=O)[C@H](CC(C)C)NC(=O)CNC(=O)[C@@H](NC(=O)[C@@H]1CCCN1C(=O)[C@@H](NC(=O)[C@H](CC(=O)O)NC(=O)[C@H](CC(C)C)NC(=O)[C@H](CO)NC(=O)[C@H](CC(C)C)NC(=O)[C@@H](NC(=O)[C@@H](N)[C@@H](C)CC)C(C)C)C(C)C)[C@@H](C)CC)C(=O)N[C@@H](CCC(N)=O)C(=O)N[C@@H](CCCCN)C(=O)N[C@@H](CC(C)C)C(=O)N[C@@H](CC(C)C)C(=O)N[C@@H](CCCCN)C(=O)N[C@@H](CCC(N)=O)C(=O)N[C@@H](CCC(N)=O)C(=O)N[C@@H](CCCNC(=N)N)C(=O)N[C@@H](CCC(N)=O)C(=O)N[C@@H](CCCNC(=N)N)C(=O)N[C@@H](CCCCN)C(=O)N[C@@H](CCC(=O)O)C(=O)N[C@@H](CCCNC(=N)N)C(=O)N[C@@H](CCC(N)=O)C(=O)N[C@@H](CCC(N)=O)C(=O)N[C@@H](C)C(=O)N[C@@H](CCC(=O)O)C(=O)N[C@@H](CCCCN)C(=O)N[C@@H](CC(N)=O)C(=O)N[C@@H](C)C(=O)N[C@@H](CCCNC(=N)N)C(=O)N[C@H](C(=O)N[C@@H](CC(C)C)C(=O)N[C@@H](C)C(=O)N[C@@H](CCCNC(=N)N)C(=O)N[C@H](C(N)=O)C(C)C)[C@@H](C)CC)C(=O)O [SEQ ID NO: 6] (H-IVLSLDVPIGLK([γGlu-Palmitoyl])QKLLKQQRQRKERQQAEKNARILARV-NH2)
2,0.18 nM,CCCCCCCCCCCCCCCC(=O)N[C@@H](CCC(=O)NCCCC[C@H](NC(=O)[C@@H](NC(=O)[C@H](CCCCN)NC(=O)[C@@H](NC(=O)[C@@H]1CCCN1C(=O)[C@@H](NC(=O)[C@H](CC(=O)O)NC(=O)[C@H](CC(C)C)NC(=O)[C@H](CO)NC(=O)[C@H](CC(C)C)NC(=O)[C@@H](NC(=O)[C@@H](N)Cc1ccccc1)[C@@H](C)O)C(C)C)[C@@H](C)O)[C@@H](C)CC)C(=O)N[C@@H](CCC(N)=O)C(=O)N[C@@H](CCCCN)C(=O)N[C@@H](CC(C)C)C(=O)N[C@@H](CC(C)C)C(=O)N[C@@H](CCCCN)C(=O)N[C@@H](CCC(N)=O)C(=O)N[C@@H](CCC(=O)O)C(=O)N[C@@H](CCCCN)C(=O)N[C@@H](CCC(N)=O)C(=O)N[C@@H](CCCCN)C(=O)N[C@@H](CCCCN)C(=O)N[C@@H](CCC(N)=O)C(=O)N[C@@H](CCCNC(=N)N)C(=O)N[C@@H](CCC(N)=O)C(=O)N[C@@H](CCCCN)C(=O)N[C@@H](C)C(=O)N[C@@H](CCCCN)C(=O)N[C@H](C(=O)N[C@@H](C)C(=O)N[C@@H](C)C(=O)N[C@@H](CCC(N)=O)C(=O)N[C@H](C(=O)N[C@@H](CC(C)C)C(=O)N[C@@H](C)C(=O)N[C@@H](CCC(N)=O)C(=O)N[C@H](C(N)=O)C(C)C)[C@@H](C)CC)[C@@H](C)O)C(=O)O [SEQ ID NO: 8] (H-FTLSLDVPTKIK([γGlu-Palmitoyl])QKLLKQEKQKKQRQKAKTAAQILAQV-NH2)
3,0.08 nM,CCCCCCCCCCCCCCCC(=O)N[C@@H](CCC(=O)NCCCC[C@H](NC(=O)[C@@H](NC(=O)[C@H](CCCCN)NC(=O)[C@@H](NC(=O)[C@@H]1CCCN1C(=O)[C@@H](NC(=O)[C@H](CC(=O)O)NC(=O)[C@H](CC(C)C)NC(=O)[C@H](CO)NC(=O)[C@H](CC(C)C)NC(=O)[C@@H](NC(=O)[C@@H](N)Cc1ccccc1)[C@@H](C)O)C(C)C)[C@@H](C)O)[C@@H](C)CC)C(=O)N[C@@H](CCC(N)=O)C(=O)N[C@@H](CCCCN)C(=O)N[C@@H](CC(C)C)C(=O)N[C@@H](CC(C)C)C(=O)N[C@@H](CCCCN)C(=O)N[C@@H](CCC(N)=O)C(=O)N[C@@H](CCC(=O)O)C(=O)N[C@@H](CCCCN)C(=O)N[C@@H](CCC(N)=O)C(=O)N[C@@H](CCCCN)C(=O)N[C@@H](CCCCN)C(=O)N[C@@H](CCC(N)=O)C(=O)N[C@@H](CCCNC(=N)N)C(=O)N[C@@H](CCC(N)=O)C(=O)N[C@@H](CCCCN)C(=O)N[C@@H](C)C(=O)N[C@@H](CCCCN)C(=O)N[C@H](C(=O)N[C@@H](C)C(=O)N[C@@H](CCCCN)C(=O)N[C@@H](CCC(N)=O)C(=O)N[C@H](C(=O)N[C@@H](CC(C)C)C(=O)N[C@@H](CCC(=O)O)C(=O)N[C@@H](CCC(N)=O)C(=O)N[C@H](C(N)=O)C(C)C)[C@@H](C)CC)[C@@H](C)O)C(=O)O [SEQ ID NO: 9] (H-FTLSLDVPTKIK([γGlu-Palmitoyl])QKLLKQEKQKKQRQKAKTAKQILEQV-NH2)
